Assay results from the supplement of paper PMC10307832.

Tests used:
Test in all cases: relative viability (nuclei count vs DMSO), 5 days (fraction); higher = more cells survive
Salubrinal + Palbociclib = compound: O=C(/C=C/c1ccccc1)NC(NC(=S)Nc1cccc2cccnc12)C(Cl)(Cl)Cl [Salubrinal] + CC(=O)c1c(C)c2cnc(Nc3ccc(N4CCNCC4)cn3)nc2n(C2CCCC2)c1=O [Palbociclib] (partner 0.5 µM)
How it was run: (§1)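 The day after seeding in 1536-well plates, lung cancer cell lines were treated by pin tool with a single drug, or with a fixed anchor-drug dose together with five library-drug doses (not always all listed) in √10 steps. After 5 days, a combined fix-and-stain solution (final 0.05% Triton X-100, 1% formaldehyde, 1 ug/ml Hoechst) was added. Nuclei counted on 4× images gave relative viability as treated counts over vehicle counts, reported as the median of duplicate plates.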

[1] = compound: Cc1ccc2nc(NCCN)c3ncc(C)n3c2c1 + C[C@]1(O)C[C@@H](c2nc(-c3ccc4ccc(-c5ccccc5)nc4c3)c3c(N)nccn32)C1 [Linsitinib] (partner 1 µM)
How it was run: as §1

Salubrinal + Dasatinib = compound: O=C(/C=C/c1ccccc1)NC(NC(=S)Nc1cccc2cccnc12)C(Cl)(Cl)Cl [Salubrinal] + Cc1nc(Nc2ncc(C(=O)Nc3c(C)cccc3Cl)s2)cc(N2CCN(CCO)CC2)n1 [Dasatinib] (partner 0.075 µM)
How it was run: as §1

[2] = compound: Cc1ccc2nc(NCCN)c3ncc(C)n3c2c1 + CC(C)C[C@H](NC(=O)[C@H](Cc1ccccc1)NC(=O)c1cnccn1)B(O)O [Bortezomib] (partner 0.002 µM)
How it was run: as §1

| Cell Line | relative viability (Salubrinal + Palbociclib; first compound 0.08 µM) | relative viability (Salubrinal + Palbociclib; first compound 0.253 µM) | relative viability (Salubrinal + Palbociclib; first compound 0.8 µM) | relative viability (Salubrinal + Palbociclib; first compound 2.53 µM) | relative viability (Salubrinal + Palbociclib; first compound 8 µM) | relative viability ([1]; first compound 0.04 µM) | relative viability ([1]; first compound 0.1265 µM) | relative viability ([1]; first compound 0.4 µM) | relative viability ([1]; first compound 1.265 µM) | relative viability ([1]; first compound 4 µM) | relative viability (Salubrinal + Dasatinib; first compound 0.08 µM) | relative viability (Salubrinal + Dasatinib; first compound 0.253 µM) | relative viability (Salubrinal + Dasatinib; first compound 0.8 µM) | relative viability (Salubrinal + Dasatinib; first compound 2.53 µM) | relative viability (Salubrinal + Dasatinib; first compound 8 µM) | relative viability ([2]; first compound 0.04 µM) | relative viability ([2]; first compound 0.1265 µM) | relative viability ([2]; first compound 0.4 µM) | relative viability ([2]; first compound 1.265 µM) | relative viability ([2]; first compound 4 µM) |
| --- | --- | --- | --- | --- | --- | --- | --- | --- | --- | --- | --- | --- | --- | --- | --- | --- | --- | --- | --- | --- |
| A-427 | 0.57 | 0.527 | 0.562 | 0.502 | 0.538 | 0.922 | 1.01 | 1.08 | 1.09 | 1.19 | 0.724 | 0.643 | 0.747 | 0.68 | 0.654 | 1.05 | 1.15 | 0.929 | 0.978 | 0.962 |
| ABC-1 | 0.692 | 0.576 | 0.836 | 0.547 | 0.664 | 0.95 | 0.806 | 0.812 | 0.818 | 0.594 | 0.54 | 0.508 | 0.633 | 0.634 | 0.554 | 0.402 | 0.223 | 0.337 | 0.282 | 0.263 |
| BEN | 0.453 | 0.444 | 0.484 | 0.457 | 0.463 | 0.916 | 0.785 | 1.03 | 0.795 | 0.914 | 0.34 | 0.406 | 0.397 | 0.313 | 0.308 | 0.929 | 0.789 | 0.849 | 0.834 | 0.868 |
| CAL-12T | 0.459 | 0.42 | 0.676 | 0.436 | 0.328 | 0.835 | 0.873 | 0.853 | 0.877 | 0.731 | 0.543 | 0.422 | 0.347 | 0.264 | 0.23 | 1.03 | 0.889 | 0.9 | 0.978 | 0.776 |
| COR-L23 | 0.356 | 0.31 | 0.312 | 0.331 | 0.208 | 0.993 | 0.773 | 0.873 | 0.988 | 0.816 | 0.522 | 0.496 | 0.645 | 0.53 | 0.453 | 1.07 | 0.913 | 0.928 | 0.989 | 0.91 |
| COR-L 105 | 0.311 | 0.405 | 0.364 | 0.408 | 0.385 | 1.11 | 0.964 | 0.873 | 1.1 | 0.845 | 0.365 | 0.325 | 0.345 | 0.317 | 0.319 | 0.89 | 0.867 | 0.723 | 0.853 | 0.737 |
| EKVX | 0.408 | 0.457 | 0.791 | 0.412 | 0.37 | 1.04 | 0.972 | 0.962 | 0.865 | 0.805 | 0.635 | 0.538 | 0.552 | 0.469 | 0.426 | 0.998 | 0.994 | 0.996 | 1.17 | 0.951 |
| EMC-BAC-2 | 0.493 | 0.493 | 0.541 | 0.525 | 0.524 | 0.799 | 0.806 | 0.822 | 0.819 | 0.831 | 0.305 | 0.334 | 0.359 | 0.411 | 0.335 | 1.12 | 1.12 | 0.957 | 1.13 | 1.05 |
